From publication PMC5995273, “Identification and Characterization of Genes Involved in Benzylisoquinoline Alkaloid Biosynthesis in Coptis Species” (Frontiers in Plant Science, 2018)

Target: T1, Ct7OMT (Coptis teeta, UniProt A0A2Z5FRT2)
T1 construct: gene 7OMT
Experiment: UPLC-QTOF-MS/MS product detection
Type: biochemical
Settings: SAM 0.1 mM, substrate 100 uM, pH 8.0, 30 C, 1 h

T1 sequence (A0A2Z5FRT2 entry or part of it): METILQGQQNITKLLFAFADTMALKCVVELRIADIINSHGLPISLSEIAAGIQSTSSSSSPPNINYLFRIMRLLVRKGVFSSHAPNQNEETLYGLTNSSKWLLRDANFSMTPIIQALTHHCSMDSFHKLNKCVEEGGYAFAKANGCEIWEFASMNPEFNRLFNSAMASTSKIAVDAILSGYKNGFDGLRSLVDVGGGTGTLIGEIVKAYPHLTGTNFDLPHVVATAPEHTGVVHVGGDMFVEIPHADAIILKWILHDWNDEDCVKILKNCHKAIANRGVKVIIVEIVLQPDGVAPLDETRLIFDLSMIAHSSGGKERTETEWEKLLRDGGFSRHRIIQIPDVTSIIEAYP

Compound: Oc1ccc(C[C@@H]2NCCc3cc(O)c(O)cc32)cc1 [compound 1, (S)-norcoclaurine]
- UPLC-QTOF-MS/MS product detection: Ct7OMT also O-methylates (S)-norcoclaurine at C6, yielding (S)-coclaurine
